Converted amounts (≈) assume the structure as drawn. Where a name gives a salt, the structure may show the parent alone. Read-outs that look alike come from different tables or passages of the source. Values belong to the compound of their own block, whether it stands above or below them.
Experiments:
[1] = cited from earlier work
[2] = with β-cyclodextrin at either 3% or 1.5%; topical; Grove et al.; cited from earlier work
[3] = system: intraocular pressure of the normal rabbit eye; conditions: topical, Silvestrini; cited from earlier work
[4] = Maximum solubility of acetazolamide with commercial HPBCD preparations (Example 3); type: physicochemical
Text: The solubility of the active agent can be determined by any of the conventional methods available. For example, solutions of the agent, prepared with and without a β-cyclodextrin derivative, can be filtered (e.g., using a 0.22 or 0.45 μm membrane filter) to eliminate undissolved agent, and subjected to chromatography (e.g., reverse-phase HPLC) to determine the concentration of agent present in the solution.
In order to assess the efficiency of 3 different commercially available preparations of HPBCD, the maximum solubility of acetazolamide (maximum solubility in water: 0.1%) was determined for each. The three sources of HPBCD were (A) Roquette (RE No. 446601), (B) American Maize ("Encapsin"), and (C) Wacker Chemical (BetaW7, HP0.9).

[5] = Maximum solubility and guest/host molar ratios in 45% hydroxypropyl-β-cyclodextrin (Example 6); type: physicochemical; conditions: for solubility: 45% hpbcd
Description: 45% (w/v) aqueous solutions of 2-hydroxypropyl-β-cyclodextrin using either source A or B (see Example 3) were prepared, and the maximum solubilities of phenoltetrabromphthalein and of cholesterol were determined per 5.0 ml of solution using standard techniques. Phenoltetrabromphthalein concentration was determined spectrophotometrically at 580 mμ. Cholesterol concentration was determined by both GLC and by liquid scintillation counting using cholesterol of known specific activity. The data are shown below, along with a summary of data from other examples.

[6] = as above; type: physicochemical; conditions: source C (Wacker)
[7] = Palmitic acid in centrifuged fractions of 2-hydroxypropyl-β-cyclodextrin solution in D2O, by GLC (Example 7); type: physicochemical; conditions: Wacker HPBCD in D2O, 100,000× g 3 hours
Description: 2.25 g of Wacker 2-hydroxypropyl-β-cyclodextrin (Source C of Example 3) was dissolved in D2 O to give a final volume of 5.0 ml. 100 mg of palmitic acid was added to the solution and the mixture placed in an ultrasonic water bath at 60° C. for several hours, after which it was brought to room temperature and filtered through an 0.22 mμ millipore filter to obtain a clear solution. 3.0 ml of the solution was centrifuged at 100,000× g for 3 hours in a Beckman TL-100 centrifuge. Following centrifugation, aliquots of approximately 1.0 ml were removed from the tube to give upper, middle and lower fractions. A 0.1 ml aliquot from each fraction was pipetted into a tube and 1 mg of cholesterol added as an internal standard. Each tube was then partitioned between ethyl acetate and water to extract all of the palmitic acid and internal standard. The amount of palmitic acid in each aliquot was then determined by GLC using a flame detector.

intraocular pressure [8] = test: Intraocular pressure after topical acetazolamide preparations, Perkins applanation tonometer (Example 2); type: in vivo, New Zealand white rabbits; conditions: 1% Na-acetazolamide in 0.9% NaCl, FIG. 1
Description: Solutions of 1% acetazolamide in 45% HPBCD and 1% Na-acetazolamide in 0.9% NaCl were applied to paired right and left eyes of 10 New Zealand white rabbits (the HPBCD is Type B of Example 3). Intraocular pressure was measured with a Perkins applanation tonometer at hourly intervals until all pressures returned to baseline. […] As a further control, the acetazolamide/HPBCD preparation was compared with 45% HPBCD alone (control).

intraocular pressure [9] = test: Intraocular pressure after 1% methazolamide in 45% HPBCD, applanation tonometry (Example 5); type: in vivo, New Zealand white rabbits; conditions: dissolved in HPBCD
Description: Solutions of 1% methazolamide in 45% HPBCD and the HPBCD alone (control) were applied to paired right and left eyes of New Zealand white rabbits. Intraocular pressure was measured by applanation tonometry until pressures returned to baseline.

[10] = system: anterior chamber of the eye; test: Fluorescence in anterior chamber after topical Na-Fluorescein, slit lamp biomicroscope; type: in vivo, New Zealand white rabbit; conditions: 2% Na-Fluorescein in 0.9% saline; at one hour; rabbit
Description: Solutions of 2% Na-Fluorescein were prepared in 0.9% Saline, 4.5% HPBCD, and 45% HPBCD (the HPBCD is Type B of Example 3). Each solution was applied to the eye of a New Zealand white rabbit and observed for a period of one hour. The anterior chamber of the eye was examined with a standard blue light source on a slit lamp biomicroscope.

[11] = source A (Roquette), read-out: maximum solubility
[12] = source B (A. Maize), read-out: maximum solubility

SMILES: CNCC(O)c1ccc(OC(=O)C(C)(C)C)c(OC(=O)C(C)(C)C)c1 (centres unmarked) [dipiviphrine]
- sensitivity developed by patients ([1]; human, in vivo): frequently develop sensitivity

SMILES: CCN[C@H]1C[C@H](C)S(=O)(=O)c2sc(S(N)(=O)=O)cc21 [L-671152]
- ocular bioavailability compared to inhibitor administered alone [2]: about 50%

SMILES: CNC[C@H](O)c1ccc(O)c(O)c1 [epinephrine]
- sensitivity developed by patients ([1]; topical, used for a year or longer): frequently develop sensitivity

SMILES: CC(=O)Nc1nnc(S(N)(=O)=O)s1 [disodium salts of acetazolamide]
- lowering of intraocular pressure [3]: can be used to lower the intraocular pressure of the normal rabbit eye

SMILES: CC(=O)Nc1nnc(S(N)(=O)=O)s1 [acetazolamide]
- solubility ([4]; hpbcd solution, HPBCD source A, Roquette (RE No. 446601), read-out: maximum solubility): 1000 µg/mL (≈ 4.5 mM)
- solubility ([4]; hpbcd solution, HPBCD source B, American Maize ("Encapsin"), read-out: maximum solubility): 10000 µg/mL (≈ 45 mM)
- solubility ([4]; hpbcd solution, HPBCD source C, Wacker Chemical (BetaW7, HP0.9), read-out: maximum solubility): 18000 µg/mL (≈ 81 mM)
- solubility ([4]; water, read-out: maximum solubility in water): 1000 µg/mL (≈ 4.5 mM)
- guest/host molar ratio ([5]; 45% HPBCD, source B (A. Maize)): 0.31
- solubility [5, 11]: > 5000 µg/mL
- solubility [5, 12]: 20000 µg/mL
- guest/host molar ratio ([6]; 45% HPBCD): 0.31
- solubility ([6]; 45% hpbcd): 20000 µg/mL

- Palmitic acid in fraction ([7]; Lower fraction): 23.4 μg/0.1 ml
- Palmitic acid in fraction ([7]; Middle fraction): 34.0 μg/0.1 ml
- Palmitic acid in fraction ([7]; Upper fraction): 41.0 μg/0.1 ml
SMILES: CCCCCCCCCCCCCCCC(=O)O [Palmitic acid, palmitic acid]

SMILES: CC(=O)Nc1nnc(S(N)(=O)=O)s1 [Na-acetazolamide]
- lowering of intraocular pressure (intraocular pressure [8]): only a transient, non-statistically significant lowering of intraocular pressure

SMILES: C[C@@H](CO)CCC[C@@H](C)[C@H]1CC[C@H]2[C@@H]3CC=C4C[C@@H](O)CC[C@]4(C)[C@H]3CC[C@]12C [26-hydroxy cholesterol]
- guest/host molar ratio [5]: .16
- solubility ([5]; maximum solubility): 20000 µg/mL

SMILES: CC(=O)/N=c1/sc(S(N)(=O)=O)nn1C [methazolamide]
- duration of effect relative to acetazolamide (intraocular pressure [9]): longer duration of effect than does acetazolamide
- potency relative to acetazolamide (intraocular pressure [9]): more potent

SMILES: CC(C)CCC[C@@H](C)[C@H]1CC[C@H]2[C@@H]3CC=C4C[C@@H](O)CC[C@]4(C)[C@H]3CC[C@]12C [Cholesterol, cholesterol]
- guest/host molar ratio ([5]; 45% HPBCD, source A (Roquette)): .0015
- guest/host molar ratio ([5]; 45% HPBCD, source B (A. Maize)): .038
- solubility [5, 11]: 80 µg/mL
- solubility [5, 12]: 4300 µg/mL

- fluorescence seen in the eye [10]: considerable fluorescence
SMILES: O=C1OC2(c3ccc(O)cc3Oc3cc(O)ccc32)c2ccccc21 [Na-Fluorescein]
